# In patent publication US20250340591A1, “COMPOSITION FOR PREVENTING OR TREATING INFLAMMATORY BOWEL DISEASE CONTAINING NOVEL COMPOUND” (ANYGEN CO., LTD., priority 2021, published 2025):
# Square brackets hold non-standard residues; d marks the D form. Peptide text beside a SMILES is read from it. * marks the point of attachment. His(Trt) = N[C@@H](Cc1cn(C(c2ccccc2)(c2ccccc2)c2ccccc2)cn1)C(=O)O; Biotin = O=C1N[C@H]2[C@H](CS[C@H]2CCCCC(=O)*)N1; Bip = N[C@@H](Cc1ccc(-c2ccccc2)cc1)C(=O)O; Octanoyl = CCCCCCCC(=O)*
# Target: T1, GPR39 (Homo sapiens, UniProt O43194)
# T1 sequence (O43194 1-453): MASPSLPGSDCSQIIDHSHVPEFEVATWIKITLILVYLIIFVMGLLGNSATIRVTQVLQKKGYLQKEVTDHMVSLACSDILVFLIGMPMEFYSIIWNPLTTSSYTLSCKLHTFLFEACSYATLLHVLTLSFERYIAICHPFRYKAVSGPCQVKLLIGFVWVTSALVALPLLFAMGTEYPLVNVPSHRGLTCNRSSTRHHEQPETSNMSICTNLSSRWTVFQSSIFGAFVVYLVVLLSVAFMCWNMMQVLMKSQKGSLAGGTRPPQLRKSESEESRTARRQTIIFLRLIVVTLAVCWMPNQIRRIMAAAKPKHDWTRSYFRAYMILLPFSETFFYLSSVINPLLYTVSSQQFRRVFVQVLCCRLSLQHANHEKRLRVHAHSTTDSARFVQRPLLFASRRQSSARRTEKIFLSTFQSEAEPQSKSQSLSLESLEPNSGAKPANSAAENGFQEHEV
# Experiment: luciferase assay system (SRE luciferase reporter gene, CV-1 cells expressing GPR39)
# Type: cell-based
# Design: expressed in transfected cells; host or cells: CV-1 fibroblast cell line (Korea Cell Line Bank), adenoviral transduction at 50 MOI
row,SMILES,ECmax (−fold induction over basal)
1,"CCCCCCCC(=O)NCCCC[C@H](NC(=O)[C@@H](N)Cc1cn(C(c2ccccc2)(c2ccccc2)c2ccccc2)cn1)C(=O)N[C@@H](Cc1ccccc1)C(=O)N[C@@H](Cc1ccc(O)cc1)C(=O)N[C@@H](CCC(N)=O)C(=O)N[C@@H](CC(N)=O)C(=O)N[C@@H](CCC(N)=O)C(=O)N[C@@H](C)C(=O)N[C@@H](CCCNC(=N)N)C(=O)N[C@@H](Cc1ccccc1)C(N)=O [HKFY-43, (S)-N1-((S)-1-(((S)-1-(((S)-1-amino-1-oxo-3-phenylpropan-2-yl)amino)-5-guanidino-1-oxopentan-2-yl)amino)-1-oxopropan-2-yl)-2-((2S,5S,8S,11S,14S)-2-(2-amino-2-oxoethyl)-14-((S)-2-amino-3-(1-trityl-1H-imidazol-4-yl)propanamido)-5-(3-amino-3-oxopropyl)-11-benzyl-8-(4-hydroxybenzyl)-4,7,10,13,20-pentaoxo-3,6,9,12,19-pentaazaheptacosanamido)pentanediamide] (H-[His(Trt)]K(Octanoyl)FYQNQARF-NH2)",12.1 ± 0.02 fold induction over basal
2,"C[C@H](NC(=O)[C@H](CCC(N)=O)NC(=O)[C@H](CCC(N)=O)NC(=O)[C@H](CC(=O)O)NC(=O)[C@H](Cc1ccc(O)cc1)NC(=O)[C@H](Cc1ccccc1)NC(=O)[C@@H](N)Cc1cn(C(c2ccccc2)(c2ccccc2)c2ccccc2)cn1)C(=O)N[C@@H](CCCNC(=N)N)C(=O)N[C@@H](Cc1ccccc1)C(N)=O [HKFY-52, (6S,9S,12S,15S,18S)-1-amino-6-(((S)-1-amino-1-oxo-3-phenylpropan-2-yl)carbamoyl)-18-((S)-2-((S)-2-((S)-2-amino-3-(1-trityl-1H-imidazol-4-yl)propanamido)-3-phenylpropanamido)-3-(4-hydroxyphenyl)propanamido)-12,15-bis(3-amino-3-oxopropyl)-1-imino-9-methyl-8,11,14,17-tetraoxo-2,7,10,13,16-pentaazaicosan-20-oic acid] (H-[His(Trt)]FYDQQARF-NH2)",15.5 ± 2.2 fold induction over basal
3,"CCCCCCCC(=O)NCCCC[C@H](N)C(=O)N[C@@H](Cc1ccccc1)C(=O)N[C@@H](Cc1ccc(O)cc1)C(=O)O [HKFY-54, N6-octanoyl-L-lysyl-L-phenylalanyl-L-tyrosine] (H-Lys(Octanoyl)-Phe-Tyr-OH)",7.8 ± 2.5 fold induction over basal
4,"CCCCCCCC(=O)NCCCC[C@H](NC(=O)[C@@H](N)Cc1c[nH]c(-c2ccccc2)n1)C(=O)N[C@H](Cc1ccc(C)cc1)C(=O)N[C@@H](Cc1ccc(O)cc1)C(=O)O [HKFY-57, ((R)-2-((S)-2-((S)-2-amino-3-(2-phenyl-1H-imidazol-4-yl)propanamido)-6-octanamidohexanamido)-3-(p-tolyl)propanoyl)-L-tyrosine]",8.5 ± 2.3 fold induction over basal
5,"CCCCCCCC(=O)NCCCC[C@H](NC(=O)[C@@H](N)Cc1cn(-c2ccccc2)cn1)C(=O)N[C@H](Cc1ccc(C)cc1)C(=O)N[C@@H](Cc1ccc(O)cc1)C(=O)O [HKFY-58, ((R)-2-((S)-2-((S)-2-amino-3-(1-phenyl-1H-imidazol-4-yl)propanamido)-6-octanamidohexanamido)-3-(p-tolyl)propanoyl)-L-tyrosine]",9.12 ± 2.1 fold induction over basal
6,"CCCCCCCC(=O)NCCCC[C@H](NC(=O)[C@@H](N)Cc1cn(-c2ccccc2)c(-c2ccccc2)n1)C(=O)N[C@H](Cc1ccc(C)cc1)C(=O)N[C@@H](Cc1ccc(O)cc1)C(=O)O [HKFY-59, ((R)-2-((S)-2-((S)-2-amino-3-(1,2-diphenyl-1H-imidazol-4-yl)propanamido)-6-octanamidohexanamido)-3-(p-tolyl)propanoyl)-L-tyrosine]",6.76 ± 2.2 fold induction over basal
7,"CCCCCCCC(=O)NCCCC[C@H](NC(=O)[C@@H](N)Cc1c[nH]c(-c2ccc(C(C)(C)C)cc2)n1)C(=O)N[C@H](Cc1ccc(C)cc1)C(=O)N[C@@H](Cc1ccc(O)cc1)C(=O)O [HKFY-60, ((R)-2-((S)-2-((S)-2-amino-3-(2-(4-(tert-butyl)phenyl)-1H-imidazol-4-yl)propanamido)-6-octanamidohexanamido)-3-(p-tolyl)propanoyl)-L-tyrosine]",28.2 ± 2.5 fold induction over basal
8,"CCCCCCCC(=O)NCCCC[C@H](NC(=O)[C@@H](N)Cc1cn(-c2ccc(C(C)(C)C)cc2)cn1)C(=O)N[C@H](Cc1ccc(C)cc1)C(=O)N[C@@H](Cc1ccc(O)cc1)C(=O)O [HKFY-61, ((R)-2-((S)-2-((S)-2-amino-3-(1-(4-(tert-butyl)phenyl)-1H-imidazol-4-yl)propanamido)-6-octanamidohexanamido)-3-(p-tolyl)propanoyl)-L-tyrosine]",9.88 ± 1.8 fold induction over basal

# More lines, now with the values ahead:
row,ECmax (−fold induction over basal),SMILES
1,20 ± 0.47 fold induction over basal,"CCCCCCCC(=O)NCCCC[C@H](NC(=O)[C@@H](N)Cc1cn(C(c2ccccc2)(c2ccccc2)c2ccccc2)cn1)C(=O)N[C@@H](Cc1ccccc1)C(=O)N[C@@H](Cc1ccc(O)cc1)C(=O)N[C@@H](Cc1c[nH]c2ccccc12)C(=O)O [HKFY-44, N6-octanoyl-N2-(Nt-trityl-L-histidyl)-L-lysyl-L-phenylalanyl-L-tyrosyl-L-tryptophan] (H-[His(Trt)]K(Octanoyl)FYW-OH)"
2,21 ± 2.58 fold induction over basal,"CCCCCCCC(=O)NCCCC[C@H](NC(=O)[C@H](Cc1cn(C(c2ccccc2)(c2ccccc2)c2ccccc2)cn1)NC(=O)CCCC[C@@H]1SC[C@@H]2NC(=O)N[C@@H]21)C(=O)N[C@@H](Cc1ccc(-c2ccccc2)cc1)C(=O)N[C@@H](Cc1ccc(O)cc1)C(=O)O [HKFY-45, ((S)-3-([1,1′-biphenyl]-4-yl)-2-((S)-6-octanamido-2-((S)-2-(5-((3aS,4S,6aR)-2-oxohexahydro-1H-thieno[3,4-d]imidazol-4-yl)pentanamido)-3-(1-trityl-1H-imidazol-4-yl)propanamido)hexanamido)propanoyl)-L-tyrosine] (Biotin-[His(Trt)]K(Octanoyl)[Bip]Y-OH)"
3,20 ± 0.28 fold induction over basal,"CCCCCCCC(=O)NCCCC[C@H](NC(=O)[C@@H](N)Cc1cn(C(c2ccccc2)(c2ccccc2)c2ccccc2)cn1)C(=O)N[C@@H](Cc1ccccc1)C(=O)N[C@@H](Cc1c[nH]c2ccccc12)C(=O)O [HKFY-46, N6-octanoyl-N2-(Nt-trityl-L-histidyl)-L-lysyl-L-phenylalanyl-L-tryptophan] (H-[His(Trt)]K(Octanoyl)FW-OH)"
4,13 ± 1.7 fold induction over basal,"CCCCCCCC(=O)NCCCC[C@H](NC(=O)[C@@H](N)Cc1cn(C(c2ccccc2)(c2ccccc2)c2ccccc2)cn1)C(=O)N[C@@H](Cc1ccc(O)cc1)C(=O)N[C@@H](Cc1ccccc1)C(=O)O [HKFY-47, N6-octanoyl-N2-(Nt-trityl-L-histidyl)-L-lysyl-L-tyrosyl-L-phenylalanine] (H-[His(Trt)]K(Octanoyl)YF-OH)"
5,14.4 ± 2.7 fold induction over basal,"CCCCCCCC(=O)NCCCC[C@H](NC(=O)[C@@H](N)Cc1cn(C(c2ccccc2)(c2ccccc2)c2ccccc2)cn1)C(=O)N[C@@H](Cc1ccc(O)cc1)C(=O)N[C@@H](Cc1ccc(O)cc1)C(=O)O [HKFY-48, N6-octanoyl-N2-(Nt-trityl-L-histidyl)-L-lysyl-L-tyrosyl-L-tyrosine] (H-[His(Trt)]K(Octanoyl)YY-OH)"
6,18.3 ± 1.8 fold induction over basal,"CCCCCCCC(=O)NCCCC[C@H](NC(=O)[C@@H](N)Cc1cn(C(c2ccccc2)(c2ccccc2)c2ccccc2)cn1)C(=O)N[C@@H](Cc1ccccc1)C(=O)O [HKFY-49, N6-octanoyl-N2-(Nt-trityl-L-histidyl)-L-lysyl-L-phenylalanine] (H-[His(Trt)]-Lys(Octanoyl)-Phe-OH)"
7,16.2 ± 1.5 fold induction over basal,"CCCCCCCC(=O)NCCCC[C@H](NC(=O)[C@@H](N)Cc1cn(C(c2ccccc2)(c2ccccc2)c2ccccc2)cn1)C(=O)N[C@@H](Cc1ccccc1)C(=O)N[C@@H](CO)C(=O)O [HKFY-50, N6-octanoyl-N2-(Nt-trityl-L-histidyl)-L-lysyl-L-phenylalanyl-L-serine] (H-[His(Trt)]K(Octanoyl)FS-OH)"
8,14.4 ± 1.9 fold induction over basal,"CCCCCCCC(=O)NCCCC[C@H](NC(=O)[C@@H](N)Cc1cn(C(c2ccccc2)(c2ccccc2)c2ccccc2)cn1)C(=O)N[C@@H](CC(C)C)C(=O)N[C@@H](Cc1ccc(O)cc1)C(=O)O [HKFY-51, N6-octanoyl-N2-(Nt-trityl-L-histidyl)-L-lysyl-L-leucyl-L-tyrosine] (H-[His(Trt)]K(Octanoyl)LY-OH)"
9,8 ± 2.12 fold induction over basal,"CCCCCCCC(=O)NCCCC[C@H](NC(=O)[C@H](CO)NC(=O)CNC(=O)[C@@H](N)Cc1cn(C(c2ccccc2)(c2ccccc2)c2ccccc2)cn1)C(=O)N[C@@H](Cc1ccccc1)C(=O)N[C@@H](Cc1ccc(O)cc1)C(=O)O [HKFY-53, N6-octanoyl-N2-(Nt-trityl-L-histidylglycyl-L-seryl)-L-lysyl-L-phenylalanyl-L-tyrosine] (H-[His(Trt)]GSK(Octanoyl)FY-OH)"
10,16.8 ± 2.5 fold induction over basal,"CCCCCCCC(=O)NCCCC[C@H](N)C(=O)N[C@@H](Cc1cn(C(c2ccccc2)(c2ccccc2)c2ccccc2)cn1)C(=O)N[C@@H](Cc1ccccc1)C(=O)N[C@@H](Cc1ccc(O)cc1)C(=O)O [HKFY-55, Na-(N6-octanoyl-L-lysyl)-Nt-trityl-L-histidyl-L-phenylalanyl-L-tyrosine] (H-K(Octanoyl)[His(Trt)]FY-OH)"
